Results: US20210393636A1, “TREATMENT OF CNS AND DEVELOPMENTAL DISORDERS USING HIGH DOSE 5-FORMYL-(6S)-TETRAHYDROFOLATE” (priority 2019, published 2021)

Key:
[1] = Folate absorption in serum after single high-dose oral administration of different folates (Example 1)
Method: For this study, 4 mg/kg folate was administered as a single dose to 250-300 g male Wistar rats. […] For each form of folate 4 time points of 30 min, 1 h, 2 h and 4 h were evaluated. For each time point 2 rats were used. The folate form dissolved in 0.5 ml buffered saline was administered orally using a blunt needle attached to a 1 ml syringe. The rats were euthanized by CO2 inhalation.
Blood was drawn cardiac puncture, allowed to clot for 30 min, serum separated, diluted in equal volume of 4% ascorbate pH 7.2 and kept frozen at −20 C. Folate forms in the serum was determined by HPLC and the peaks were quantified by comparing to known standards as described below.
Folate standards (5-MTHF, FA, THF and Formyl-THF) and 13C-labeled stable isotope internal standards (13C5-5-MTHF, 13C5-FA and 13C-Formyl-THF) were obtained from Schircks Laboratories (Switzerland). Formic acid, ascorbic acid and dithiothreitol (DTT) were obtained from Fluka and Optima LC-MS grade methanol from Fisher Scientific. Stock standards for each folate metabolite and internal standards were prepared as 1 mmol/L solutions in water containing 2 mg/mL ascorbic acid and stored at −80° C. Microtiter plates used for were purchased from NUNC.
Liquid chromatography electrospray ionization mass spectrometry (LC-ESI-MS/MS) analysis of plasma 5-MTHF, FA, THF, Formyl-THF was performed on a Sciex 5500QTRAP mass spectrometer (Foster City, Calif., USA) coupled with a Shimadzu ultra-high pressure Nexera chromatograph system (Kyoto, Japan). The MS/MS experiments were performed under positive electrospray ionization (+ESI) with multiple-reaction monitoring (MRM) using a Turbolon Spray electrospray source operating at a voltage of 5.5 kV and desolvation temperature of 500° C. The calibration curve was prepared in water containing 2 mg/mL ascorbic acid over a range of 12.5-400 nmol/L for each folate analyte.
Sample preparation involved combining 50 µl of blank, standard, control or sample with 10μ1 62.5 mM dithiothreitol, 20 mg/ml ascorbic acid and 2.5 μM 13C5-5-MTHF, 13C5-FA, 13C-Formyl-THF in 1.5 mL Eppendorf tubes, mixed by vortex and incubated for 10 minutes at room temperature in the dark. Next, samples were deproteinized with 5 volumes of methanol containing 2 mg/ml of ascorbic acid and vortexed and centrifuged at 14800 rpm for 10 minutes. Supernatant was loaded in a 96-well microtiter plate for analysis. The samples were analyzed following injection of 10 μL of extract on a Synergi Hydro 4μ 150×3 mm with a 4×2 mm SecurityGuard column (Phenomenex, Calif., USA) maintained at 40° C. (Phenomenex) and eluted in a gradient with buffer A (100% water with 0.1% formic acid) and buffer B (100% Methanol with 0.1% formic acid). The flow rate was 0.5 mL/min, with a gradient over a total run time of 6 min: 0.0-2.0 min, 0-100% B; 2.5 min, 100% B; 2.6-6.0 min, 0% B.
Total analytical analysis, including column re-equilibration, was 6 minutes. Eluent flow from the column was diverted to waste at the beginning and end of each run and was only directed to the source for the period from 1.5-3.5 minutes. The LC-MS/MS data was acquired and processed using Analyst 1.5.2 software (Sciex).
Values reported include both D- and L-forms.

[2] = Total folates in serum 24 h after oral administration of folate forms (Example 2); format: in vivo, rats; set-up: Total Folates in Serum (total 5-MTHF D- and L- plus folic acid): unit not given here; settings: 4 mg/kg oral, 24 h
Method: (§1) This study evaluated the difference in folate absorption in non-pregnant rats, pregnant rats, pregnant rats injected with a control antibody, and pregnant rats injected with antibody to the folate receptor alpha. Eight (8) rats were assigned to each group for a total of thirty-two (32) rats. Two rats within each group were administered a single oral dose of PGA, 5-methyl-(6S)-THF, folinic acid or 5-formyl-(6S)-THF as a liquid solution and sacrificed at 24-hours to evaluate folate absorption patterns. The total amount of each form of folate administered to each rat was 4 mg/kg.
Serum was withdrawn immediately before the rat was sacrificed. For extraction of folate from serum, an aliquot of the serum was diluted in 3 volumes of phosphate buffer pH 5.5, placed in a boiling water bath for 10 min, cooled, the protein precipitate separated by centrifugation and the clear supernatant was assayed for folate concentration.

[3] = Tissue distribution of folates 24 h after oral administration of folate forms (Example 2); format: in vivo, rats; settings: for Total 5-MTHF + PGA in Brain: derived from cortex and cerebellum
Method: as §1
Additional analyses were performed in various tissues of the pregnant and non-pregnant rats. For tissues other than serum, each tissue was collected, weighed and stored at −20 C. For the folate assay each tissue was suspended in 3 volumes of phosphate buffer containing 2% ascorbic acid pH 7.4 and homogenized using a polytron probe. An aliquot of this homogenate was diluted 10 fold in PO4 buffer PH 5.5 containing 0.2% ascorbic acid, in a glass tube, sealed and placed in a boiling water bath for 10 min. The tube was cooled to room temperature, precipitate removed by centrifugation and the clear supernatant assayed for folate. Brain concentrations were derived from cortex and cerebellum.

[4] = Tissue distribution of folates 24 h after oral administration of folate forms to rat pups, with and without FR Ab (Example 3); format: in vivo; settings: for Folate (mean), Cerebellum / Folate (mean), Cerebrum / Folate (mean), Kidney / Folate (mean), Liver: PND 21 rat pups, 4 mg/kg oral, 24 h
Method: To determine tissue distribution of orally administered folate forms in young rat pups and study the effect of folate receptor antibodies on this distribution. PND 21 rat pups weighing about 50 g were administered folate forms orally at a dose of 4 mg/kg. Animals were euthanized after 24 h and tissues collected for analyzing total methylfolate in each tissue to provide a measure of normal distribution.

[5] = 25 mg liquid elixir, oral; cited from earlier work
[6] = parenteral 5 mg twice weekly or oral 0.5-20 mg/kg/day; cited from earlier work
[7] = serum, 4 mg/kg single oral dose, 0.5 hr
[8] = serum, 4 mg/kg single oral dose, 1 hr
[9] = serum, 4 mg/kg single oral dose, 2 hr
[10] = serum, 4 mg/kg single oral dose, 4 hr
[11] = non-pregnant rats, without antibody, 4 mg/kg oral, 24 h
[12] = pregnant rats, + Control IgG, 4 mg/kg oral, 24 h
[13] = pregnant rats, + FRAb, 4 mg/kg oral, 24 h
[14] = pregnant rats, w/o IgG, 4 mg/kg oral, 24 h
[15] = male, Wistar, rat, in vivo, po, 4 mg/kg
[16] = male, Wistar, rat, in vivo, po, 4 mg/kg, 0.5 h
[17] = male, Wistar, rat, in vivo, po, 4 mg/kg, 1 h
[18] = male, Wistar, rat, in vivo, po, 4 mg/kg, 2 h
[19] = male, Wistar, rat, in vivo, po, 4 mg/kg, 4 h

## CN1c2c(nc(N)[nH]c2=O)NC[C@@H]1CNc1ccc(C(=O)N[C@@H](CCC(=O)O)C(=O)O)cc1 [5-methyl-(6S)-THF, 5-methyl-(6S)-tetrahydrofolate]
[1]; [7]
  THF: 4.4 ng/mL
  Total Uptake: 188.5 ng/mL
[1]; serum, 4 mg/kg single oral dose, 0.5 hr, D- and L-forms
  5-MTHF: 184.1 ng/mL
[1]; [8]
  THF: 9.0 ng/mL
  Total Uptake: 223.8 ng/mL
[1]; serum, 4 mg/kg single oral dose, 1 hr, D- and L-forms
  5-MTHF: 214.8 ng/mL
[1]; [9]
  THF: 8.7 ng/mL
  Total Uptake: 258.4 ng/mL
[1]; serum, 4 mg/kg single oral dose, 2 hr, D- and L-forms
  5-MTHF: 249.7 ng/mL
[1]; [10]
  5-FoTHF: 5.1 ng/mL
  THF: 19.6 ng/mL
  Total Uptake: 216.2 ng/mL
[1]; serum, 4 mg/kg single oral dose, 4 hr, D- and L-forms
  5-MTHF: 191.4 ng/mL
[2]; Non-pregnant rats
  Total Folates in Serum (total 5-MTHF D- and L- plus folic acid): 60.0
[2]; pregnant rats, Control Ab + Form
  Total Folates in Serum (total 5-MTHF D- and L- plus folic acid): 143.3
[2]; pregnant rats, FRAb + Form
  Total Folates in Serum (total 5-MTHF D- and L- plus folic acid): 190.9
[2]; pregnant rats, Form Only
  Total Folates in Serum (total 5-MTHF D- and L- plus folic acid): 85.5
[3]; [11]
  Total 5-MTHF + PGA in Cerebellum: 1.9
  Total 5-MTHF + PGA in Cortex: 1.9
  Total 5-MTHF + PGA in Kidney: 36.4
  Total 5-MTHF + PGA in Liver: 75.4
  Total 5-MTHF + PGA in Ovary: 7.2
  Total 5-MTHF + PGA in Brain: 1.9
[3]; [12]
  Total 5-MTHF + PGA in Embryo: 2.0 ng/mg
  Total 5-MTHF + PGA in Kidney: 20.3 ng/mg
  Total 5-MTHF + PGA in Liver: 148.5 ng/mg
  Total 5-MTHF + PGA in Ovary: 14.9 ng/mg
  Total 5-MTHF + PGA in Placenta: 2.3 ng/mg
  Total 5-MTHF + PGA in Brain: 3.2 ng/mg
[3]; [13]
  Total 5-MTHF + PGA in Embryo: 1.9 ng/mg
  Total 5-MTHF + PGA in Kidney: 64.9 ng/mg
  Total 5-MTHF + PGA in Liver: 148.0 ng/mg
  Total 5-MTHF + PGA in Ovary: 27.0 ng/mg
  Total 5-MTHF + PGA in Placenta: 2.1 ng/mg
  Total 5-MTHF + PGA in Brain: 3.7 ng/mg
[3]; [14]
  Total 5-MTHF + PGA in Embryo: 4.6 ng/mg
  Total 5-MTHF + PGA in Kidney: 25.5 ng/mg
  Total 5-MTHF + PGA in Liver: 58.6 ng/mg
  Total 5-MTHF + PGA in Ovary: 6.6 ng/mg
  Total 5-MTHF + PGA in Placenta: 6.4 ng/mg
  Total 5-MTHF + PGA in Brain: 2.4 ng/mg
[4]; + FRAb (100 ug IP 24 h prior)
  Folate (mean), Cerebellum: 60.7 ng/mg
  Folate (mean), Cerebrum: 3.8 ng/mg
  Folate (mean), Kidney: 116.4 ng/mg
  Folate (mean), Liver: 250.34 ng/mg
[4]; no FRAb
  Folate (mean), Cerebellum: 26.1 ng/mg
  Folate (mean), Cerebrum: 4.3 ng/mg
  Folate (mean), Kidney: 86.6 ng/mg
  Folate (mean), Liver: 158.5 ng/mg

## Nc1nc2c(c(=O)[nH]1)N(C=O)C(CNc1ccc(C(=O)N[C@@H](CCC(=O)O)C(=O)O)cc1)CN2 (stereo partly drawn) [Folinic acid, 5-formyl-tetrahydrofolate]
[1]; [15]
  concentration at 0.5 h: 80.1 ng/mL
  concentration at 1 h: 55.9 ng/mL
  concentration at 2 h: 27.5 ng/mL
  concentration at 4 h: 21.7 ng/mL
[1]; [16]
  5-MTHF: 109.7 ng/mL
  THF: 5.5 ng/mL
  Total Uptake: 195.3 ng/mL
[1]; [17]
  5-MTHF: 115.7 ng/mL
  THF: 5.9 ng/mL
  Total Uptake: 177.4 ng/mL
[1]; [18]
  5-MTHF: 103.3 ng/mL
  THF: 5.1 ng/mL
  Total Uptake: 135.9 ng/mL
[1]; [19]
  5-MTHF: 120.7 ng/mL
  THF: 7.2 ng/mL
  Total Uptake: 149.6 ng/mL
[1]; rat, in vivo, po, 4 mg/kg
  THF concentration relative to an equal dose of 5-formyl-6S-THF: less than one fifth
[3]; non-pregnant rats without folate receptor antibody
  tissue uptake of the unnatural D-isomer in ovary, brain, cerebellum and cortex: significant
[4]; antibody-treated pups vs pups without antibody
  change of folates in the brain on antibody administration: an increase in folates in the brain is observed
[5]
  AUC0-24h, 5-Formyl-THF (Strep. faecalis activity): 135 ± 80 ng·h/mL
  AUC0-24h, 5-Methyl-THF (arithmetic difference): 1929 ± 542 ng·h/mL
  AUC0-24h, Total folates (l-casei activity): 2063 ± 587 ng·h/mL
  AUC0-inf, 5-Formyl-THF (Strep. faecalis activity): 140 ± 81 ng·h/mL
  AUC0-inf, 5-Methyl-THF (arithmetic difference): 2012 ± 567 ng·h/mL
  AUC0-inf, Total folates (l-casei activity): 2149 ± 612 ng·h/mL
  Cmax, 5-Formyl-THF (Strep. faecalis activity): 51 ± 50 ng/mL
  Cmax, 5-Methyl-THF (arithmetic difference): 367 ± 87 ng/mL
  Cmax, Total folates (l-casei activity): 393 ± 96 ng/mL
  t1/2, 5-Formyl-THF (Strep. faecalis activity): 9.5 ± 4.6 h
  t1/2, 5-Methyl-THF (arithmetic difference): 6.0 ± 1.9 h
  t1/2, Total folates (l-casei activity): 6.0 ± 1.9 h
  tmax, 5-Formyl-THF (Strep. faecalis activity): 1.22 ± 0.583 h
  tmax, 5-Methyl-THF (arithmetic difference): 2.37 ± 0.483 h
  tmax, Total folates (l-casei activity): 2.33 ± 0.533 h
[6]
  tolerability: tolerated
